Structures can show the parent of a compound that is named as a salt.
Experiments:
[1] = test system: Cellular Release of Amyloid Peptide 1-40; assay: Test 4: Inhibition of Cellular Release of Amyloid Peptide 1-40; assay type: cell-based, Chinese hamster; settings: Cricetulus griseus, 24 h; read-out: Amyloid-β1-40 release IC50
Description: Chinese hamster ovary cells are transfected with the human gene for amyloid precursor protein. The cells are plated at a density of 8000 cells/well into 96-well microtiter plates and cultivated for 24 hours in DMEM cell culture medium containing 10% FCS. The test compound is added to the cells at various concentrations, and the cells are cultivated for 24 hours in the presence of the test compound. […] The potency of the compound is calculated from the percentage of inhibition of amyloid peptide release as a function of the test compound concentration.

[2] = biological target: Human BACE-1 (Homo sapiens, UniProt P56817); assay: Test 1: Inhibition of Human BACE-1; assay type: biochemical; settings: mean IC50 values in Test 1; recombinant BACE-1, pH 4.5
Human BACE-1, sequence (P56817 46-457 limits assumed): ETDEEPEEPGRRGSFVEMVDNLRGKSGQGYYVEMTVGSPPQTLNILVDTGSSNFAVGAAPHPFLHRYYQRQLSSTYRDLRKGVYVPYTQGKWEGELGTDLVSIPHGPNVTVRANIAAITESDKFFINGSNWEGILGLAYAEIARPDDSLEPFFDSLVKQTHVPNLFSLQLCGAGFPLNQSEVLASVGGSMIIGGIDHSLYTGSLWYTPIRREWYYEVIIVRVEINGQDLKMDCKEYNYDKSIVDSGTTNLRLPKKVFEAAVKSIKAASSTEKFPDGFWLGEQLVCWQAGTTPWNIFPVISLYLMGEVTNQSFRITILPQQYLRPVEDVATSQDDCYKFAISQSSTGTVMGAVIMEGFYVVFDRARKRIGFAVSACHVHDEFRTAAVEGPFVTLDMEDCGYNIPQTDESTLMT
Description: Test 1: Inhibition of Human BACE-1
IC50 values are calculated from percentage of inhibition of BACE-1 activity as a function of the test compound concentration.

| SMILES | IC50 [1] | IC50 [2] |
| --- | --- | --- |
| [2H]C([2H])([2H])Oc1cnc(C(=O)Nc2ccc(F)c([C@]3(C(F)F)COCC(N)=N3)c2)c(N)n1 [Example 3, 3-Amino-5-tris-deutero-methoxy-pyrazine-2-carboxylic acid [3-((R)-5-amino-3-difluoromethyl-3,6-dihydro-2H-[1,4]oxazin-3-yl)-4-fluoro-phenyl]-amide] | 9 nM | 25 nM |
| C[C@@]1(c2cc(NC(=O)c3ncc(C(F)F)nc3N)ccc2F)CO[C@@](C)(C(F)(F)F)C(N)=N1 [Example 28, 3-Amino-5-difLuoromethyl-pyrazine-2-carboxylic acid [3-((3R,6R)-5-amino-3,6-dimethyl-6-trifluoromethyl-3,6-dihydro-2H-[1,4]oxazin-3-yl)-4-fluoro-phenyl]-amide] | 8 nM | 10 nM |
| Cl.[2H]C([2H])([2H])Oc1cnc(C(=O)Nc2ccc(F)c([C@]3(C)CO[C@@](C)(C(F)(F)F)C(N)=N3)c2)c(Cl)c1 [Example 22, 3-Chloro-5-trideutero-methoxy-pyridine-2-carboxylic acid [3-((3R,6R)-5-amino-3,6-dimethyl-6-trifluoromethyl-3,6-dihydro-2H-[1,4]oxazin-3-yl)-4-fluoro-phenyl]-amide hydrochloride] | 7 nM | 20 nM |
| COc1ccc(C(=O)Nc2ccc(F)c([C@]3(C)CO[C@@](C)(C(F)(F)F)C(N)=N3)c2)c(N)n1 [Example 44, 2-Amino-N-[3-((3R,6R)-5-amino-3,6-dimethyl-6-trifluoromethyl-3,6-dihydro-2H-[1,4]oxazin-3-yl)-4-fluoro-phenyl]-6-methoxy-nicotinamide] | 79 nM | 220 nM |
| COc1cnc(C(=O)Nc2ccc(F)c([C@]3(C(F)F)COCC(N)=N3)c2)c(C)c1 [Example 7, 5-Methoxy-3-methyl-pyridine-2-carboxylic acid [3-((R)-5-amino-3-difluoromethyl-3,6-dihydro-2H-[1,4]oxazin-3-yl)-4-fluoro-phenyl]-amide hydrochloride] | 11 nM | 130 nM |
| C[C@@]1(c2cc(NC(=O)c3ncc(C(F)F)cc3N)ccc2F)CO[C@@](C)(C(F)(F)F)C(N)=N1 [Example 29, 3-Amino-5-difluoromethyl-pyridine-2-carboxylic acid [3-((3R,6R)-5-amino-3,6-dimethyl-6-trifluoromethyl-3,6-dihydro-2H-[1,4]oxazin-3-yl)-4-fluoro-phenyl]-amide] | 10 nM | 14 nM |
| C[C@@]1(c2cc(NC(=O)c3ncc(C(F)F)cc3Cl)ccc2F)CO[C@@](C)(C(F)(F)F)C(N)=N1 [Example 32, 3-Chloro-5-difluormethyl-pyridine-2-carboxylic acid [3-((3R,6R)-5-amino-3,6-dimethyl-6-trifluoromethyl-3,6-dihydro-2H-[1,4]oxazin-3-yl)-4-fluoro-phenyl]-amide] | 11 nM | 20 nM |
| C[C@@]1(c2cc(NC(=O)c3ncc(C(F)(F)F)cc3Cl)ccc2F)CO[C@@](C)(C(F)(F)F)C(N)=N1 [Example 34, 3-Chloro-5-trifluoromethyl-pyridine-2-carboxylic acid [3-((3R,6R)-5-amino-3,6-dimethyl-6-trifluoromethyl-3,6-dihydro-2H-[1,4]oxazin-3-yl)-4-fluoro-phenyl]-amide] | 10 nM | 16 nM |
| Cc1cc(OC(F)F)cnc1C(=O)Nc1ccc(F)c(C2(C)COC(CF)(CF)C(N)=N2)c1 (stereo not drawn) [Example 39, 5-Difluoromethoxy-3-methyl-pyridine-2-carboxylic acid [3-(5-amino-6,6-bis-fluoromethyl-3-methyl-3,6-dihydro-2H-[1,4]oxazin-3-yl)-4-fluoro-phenyl]-amide] | 22 nM | 300 nM |
| Cc1cc(Cl)cnc1C(=O)Nc1ccc(F)c(C2(C)COC(CF)(CF)C(N)=N2)c1 (stereo not drawn) [Example 41, 5-Chloro-3-methyl-pyridine-2-carboxylic acid [3-(5-amino-6,6-bis-fluoromethyl-3-methyl-3,6-dihydro-2H-[1,4]oxazin-3-yl)-4-fluoro-phenyl]-amide] | 13 nM | 48 nM |
| [2H]C([2H])([2H])Oc1cnc(C(=O)Nc2ccc(F)c([C@]3(C)CO[C@@](C)(C(F)(F)F)C(N)=N3)c2)c(C)c1 [Example 36, 5-Trideuteromethoxy-3-methyl-pyridine-2-carboxylic acid [3-((3R,6R)-5-amino-3,6-dimethyl-6-trifluoromethyl-3,6-dihydro-2H-[1,4]oxazin-3-yl)-4-fluoro-phenyl]-amide] | 18 nM | 28 nM |
| Cc1cc(C(F)F)cnc1C(=O)Nc1ccc(F)c([C@]2(C)CO[C@@](C)(C(F)(F)F)C(N)=N2)c1 [Example 27, 5-Difluoromethyl-3-methyl-pyridine-2-carboxylic acid [3-((3R,6R)-5-amino-3,6-dimethyl-6-trifluoromethyl-3,6-dihydro-2H-[1,4]oxazin-3-yl)-4-fluoro-phenyl]-amide hydrochloride] | 10 nM | 16 nM |
| C[C@@]1(c2cc(NC(=O)c3ncc(Cl)cc3F)ccc2F)CO[C@@](C)(C(F)(F)F)C(N)=N1 [Example 21, 5-Chloro-3-fluoro-pyridine-2-carboxylic acid [3-((3R,6R)-5-amino-3,6-dimethyl-6-trifluoromethyl-3,6-dihydro2H-[1,4]oxazin-3-yl)-4-fluoro-phenyl]-amide hydrochloride] | 9 nM | 12 nM |
| COc1ccc(C(=O)Nc2ccc(F)c([C@]3(C)CO[C@@](C)(C(F)(F)F)C(N)=N3)c2)c(Cl)n1 [Example 45, N-[3-((3R,6R)-5-Amino-3,6-dimethyl-6-trifluoromethyl-3,6-dihydro-2H-[1,4]oxazin-3-yl)-4-fluoro-phenyl]-2-chloro-6-methoxy-nicotinamide] | 720 nM | 2600 nM |
| Cc1cc(OC(F)F)cnc1C(=O)Nc1ccc(F)c([C@]2(C)COC(CF)(CF)C(N)=N2)c1 [Example 40, 5-Difluoromethoxy-3-methyl-pyridine-2-carboxylic acid [3-((R)-5-amino-6,6-bis-fluoromethyl-3-methyl-3,6-dihydro-2H-[1,4]oxazin-3-yl)-4-fluoro-phenyl]-amide] | 4 nM | 29 nM |
| [2H]C([2H])([2H])OCc1cc(F)cnc1C(=O)Nc1ccc(F)c([C@]2(C(F)F)COCC(N)=N2)c1 [Example 9, 5-Fluoro-3-trideuteromethoxymethyl-pyridine-2-carboxylic acid [3-((R)-5-amino-3-difluoromethyl-3,6-dihydro-2H-[1,4]oxazin-3-yl)-4-fluoro-phenyl]-amide] | 36 nM | 110 nM |
| [2H]c1nc(C(=O)Nc2cc(F)c(F)c([C@]3(C(F)F)COCC(N)=N3)c2)c(C([2H])([2H])[2H])c([2H])c1Cl [Example 16, 4,6-Dideutero-5-chloro-3-trideuteromethyl-pyridine-2-carboxylic acid [3-((R)-5-amino-3-difluoromethyl-3,6-dihydro-2H-[1,4]oxazin-3-yl)-4,5-difluoro-phenyl]-amide] | 14 nM | 14 nM |
| [2H]C([2H])([2H])Oc1cnc(C(=O)Nc2ccc(F)c([C@]3(C(F)F)COCC(N)=N3)c2)c(C)c1 [Example 13, 5-Trideuteromethoxy-3-methyl-pyridine-2-carboxylic acid [3-((R)-5-amino-3-difluoromethyl-3,6-dihydro-2H-[1,4]oxazin-3-yl)-4-fluoro-phenyl]-amide] | 22 nM | 110 nM |
